Data on 22 compounds can be found in patent US4886915A, “Water soluble organic ammonium per halides” (priority 1988, dated 1989).

Data set [1] is described as follows: Titration for oxidizable bromine (Standard Methods for the Examination of Water and Waste Water, Method 408A). Conditions: for Ox. Br2 of the sample used for vapor pressure: Table 9; for Tit. Ox. Br2: Table 1, aqueous solution prepared from 48% HBr.
Data set [2] is described as follows: Vapor pressure of aqueous organic ammonium perbromides (isoteniscope). Conditions: for vapor pressure of bromine: 26° C., bromine water approx. 3.5% by weight, NaBr3 and perbromides roughly 40% Br2; for Vp: @ 26° C., Table 9.
The nature of data set [3]: Water solubility of perbromides. The following applies: for Solubility: in water, Tables 2 and 3.
Data set [4] can be described thus: Perbromide closed-bottle shelf life stability at ambient temperature. The following applies: for Initial Ox. Br2: time zero. The procedure: (§1) In order to determine the shelf life stability of the perbromide solutions, a series of studies were conducted to determine the percent bromine lost over time. The following tables shown below list the perbromides studied and the percent oxidizable bromine lost over time. The perbromides studied were kept in closed bottles in ambient conditions (Table 7) and at 50° C.

Data set [5] is described as follows: Perbromide closed-bottle shelf life stability at 50° C. Conditions: for Initial Ox. Br2: time zero. On the procedure:
as §1

Setting [6] is: Table 2, perbromide separated as bottom viscous liquid phase.
[7] abbreviates: ambient, time elapsed 24 months (#3 17, #11 16, #23 22 months).
[8] abbreviates: ambient, time elapsed 24 months (#3 17, #11 16, #23 22 months), 1.0512e+06 min.
The mark [9] stands for this setting: 50° C., time elapsed 40 (months).
[10] abbreviates: Table 4, concentrated (74.1% hydrobromide, #17) and anhydrous (100%, #18-20).

With 1,6-Hexanediammonium [compound 16], the “Tit. Ox. Br” value in data set [1] (Table 3, crystalline perbromide precipitated out of aqueous solution) is 51.8 % by Weight.

As for `BrBr` [compound 35, Pure Bromine], in data set [2], the “vapor pressure of bromine” value is listed as “approximately 220 mm Hg” and the Vp worked out at 223 mmHg. Also, in data set [1], the “Ox. Br2 of the sample used for vapor pressure” value (from here on “Ox. Br2 of the sample used”) stood at 100 % by Weight.

Consider Bromine in H2 O [compound 34], for which, in data set [2], the “vapor pressure of bromine” value was found to be 210 mm Hg and the Vp is 210 mmHg. The “Ox. Br2 of the sample used” value in data set [1] was 3.5 % by Weight.

In data set [2], “Dibutylammonium Perbromide [compound 11]” returned a Vp of 38 mmHg. Further, the Solubility in data set [3] was found to be 1.0 g./100 g H2O. Besides, in data set [1] (setting [6]), the “Tit. Ox. Br” value was found to be 40.9 % by Weight. In data set [4] (setting [7]), the “Change in % Br2” value is 2.1% and the “Final Ox. Br2” value amounted to 41.1 % by Weight. The “Relative Change in % Br2” value in data set [4] (setting [8]) was 4.9%. Also, the “Initial Ox. Br2” value in data set [4] (ambient) turned out to be 43.2 % by Weight.

“Diethanolammonium Perbromide [Compound #4]” came in with a Vp in data set [2] of 49 mmHg. Moreover, the “Change in % Br2” value in data set [5] (setting [9]) came to 7.0%; in data set [4] (setting [7]), 2.0%. For the same compound, the “Final Ox. Br2” value in data set [5] (setting [9]) is listed as 30.0 % by Weight; in data set [4] (setting [7]) it was 35.0 % by Weight. For the same compound, the “Initial Ox. Br2” value in data set [5] (50° C.) and in data set [4] (ambient) was 37.0 % by Weight throughout.

With “Diethanolammonium Perbromide [Compound #20]”, the “water solubility (in words)” value in data set [3] is on record as “very soluble in water”. Further, the “Tit. Ox. Br” value in data set [1] (setting [10]) was 45.3 % by Weight.

As for “Diethylethanolammonium [compound 14, reference compound]”, in data set [3], the “water solubility (in words)” value is on record as “only sparingly soluble in water” and the Solubility is 0.1 g./100 g H2O. In addition, the “Tit. Ox. Br” value in data set [1] (setting [6]) is listed as 42.3 % by Weight.

As for “Dimethylethanolammonium Perbromide [Compound #7, reference compound]”, the Vp in data set [2] was 30 mmHg.

Regarding “Dipropylammonium Perbromide [compound 10]”, the “Tit. Ox. Br” value in data set [1] (setting [6]) is recorded as 45.1 % by Weight.

In the case of “Ethanolammonium Perbromide [Compound #1]”, the “Change in % Br2” value in data set [5] (setting [9]) worked out at 1.8%; in data set [4] (setting [7]) it was 1.6%. The “Final Ox. Br2” value in data set [5] (setting [9]) is 39.0 % by Weight; in data set [4] (setting [7]) it was 38.5 % by Weight. Further, the “Initial Ox. Br2” value was found to be 40.8 % by Weight in data set [5] (50° C.) and 40.1 % by Weight in data set [4] (ambient). In addition, the results for the “Relative Change in % Br2” value in data set [5] (29200 h) and in data set [4] (17520 h) were 4.4% and 4.0%, respectively.

With “Ethanolammonium Perbromide [Compound #17]”, the “Tit. Ox. Br” value in data set [1] (setting [10]) is listed as 47.3 % by Weight.

Regarding “Ethanolammonium Perbromide [Compound #18]”, in data set [1] (setting [10]), the “Tit. Ox. Br” value is listed as 51.8 % by Weight.

Turning to “Ethanolammonium Perbromide [Compound #21]”, the entries for the “Relative Change in % Br2” value in data set [5] (29200 h) and in data set [4] (17520 h) were 3.1% and 2.0%, respectively.

In the case of “Ethylethanolammonium Perbromide [compound 6]”, the “Tit. Ox. Br2” value in data set [1] is 37.7 % by Weight.

For Hexylammonium Perbromide [compound 8], the “Tit. Ox. Br2” value in data set [1] came to 36.1 % by Weight.

Take “Methylethanolammonium Perbromide [compound 5]”: the Vp in data set [2] is 28 mmHg. Further, in data set [1], the “Tit. Ox. Br2” value worked out at 39.3 % by Weight and the “Ox. Br2 of the sample used” value amounted to 39.3 % by Weight.

Take Octylammonium Perbromide [compound 9]: the “Tit. Ox. Br2” value in data set [1] amounted to 34.7 % by Weight.

Compound Propylammonium Perbromide [Compound #3] returned a Vp in data set [2] of 36 mmHg. Moreover, the figures for the “Change in % Br2” value in data set [5] (setting [9]) and in data set [4] (setting [7]) were 2.0% and 0.3%, respectively. Moreover, the results for the “Final Ox. Br2” value in data set [5] (setting [9]) and in data set [4] (setting [7]) were 39.0 % by Weight and 41.0 % by Weight, respectively. Moreover, the “Relative Change in % Br2” value in data set [5] (50° C., time elapsed 40 (months), 1.752e+06 min) is recorded as 4.9%; in data set [4] (setting [8]), 0.7%. In addition, the figures for the “Initial Ox. Br2” value in data set [5] (50° C.) and in data set [4] (ambient) were 41.0 % by Weight and 41.3 % by Weight, respectively. Also, the “Tit. Ox. Br2” value in data set [1] came to 39.3 % by Weight. In data set [1], the “Ox. Br2 of the sample used” value came out at 39.3 % by Weight.

Regarding “Propylammonium Perbromide [Compound #19]”, in data set [1] (setting [10]), the “Tit. Ox. Br” value is 53.2 % by Weight.

For Propylammonium Perbromide [compound 22], the results for the “Relative Change in % Br2” value in data set [5] (29200 h) and in data set [4] (17520 h) were 2.7% and 2.3%, respectively.

Consider Sodium (NaBr3) [compound 33], for which, in data set [2], the “vapor pressure of bromine” value is reported as 140 mm Hg and the Vp is recorded as 145 mmHg.

Take “Tributylammonium Perbromide [compound 12, reference compound]”: in data set [2], the Vp worked out at 28 mmHg. Moreover, the “Tit. Ox. Br” value in data set [1] (setting [6]) was 36.0 % by Weight. The “Ox. Br2 of the sample used” value in data set [1] came to 37.5 % by Weight.
